From ChEMBL document CHEMBL3885861, “Open TG-GATES”

Organism: Rattus norvegicus
Experiment: Open TG-GATES - Regimen: Daily Repeat
Format: toxicity, organism-based, Sprague-Dawley
Set-up: regimen Daily Repeat, gender Male, age 6 weeks
Conditions: in vivo, po, 300 mg/kg, route gavage, dose level Middle; for APTT / Bas / Eos / Fbg / Hb / Ht / Lym / MCH / MCHC / MCV / Mono / Neu / PT / Plat / RBC / Ret / WBC: tissue Blood; for KIDNEY_L / KIDNEY_R / KIDNEY_TOTAL: tissue Kidney; for LIVER: tissue Liver; for A/G / ALP / ALT / AST / BUN / CRE / Ca / Cl / DBIL / GLC / IP / K / LDH / Na / PL / RALB / TBIL / TC / TG / TP / gamma-GTP: tissue Plasma

Work on CCCCNC(=O)NS(=O)(=O)c1ccc(C)cc1 [TOLBUTAMIDE] yielded a TERMINAL_BW (72 h, time 3 day) of 233.2 g, an APTT (72 h, time 3 day) of 17 s and a Bas (72 h, time 3 day) of 0%. For the same compound, the Eos (72 h, time 3 day) was 1%, the Fbg (72 h, time 3 day) was 287.2 mg/dL and the Hb (72 h, time 3 day) was 13.7 g/dL. For the same compound, the Ht (72 h, time 3 day) was 41.8%, the Lym (72 h, time 3 day) was 80% and the MCH (72 h, time 3 day) was 20.8 pg. The MCHC (72 h, time 3 day) was 32.8%, the MCV (72 h, time 3 day) was 63.2 fL and the Mono (72 h, time 3 day) was 2.6%. The Neu (72 h, time 3 day) was 15.6%, the PT (72 h, time 3 day) was 13 s and the Plat (72 h, time 3 day) was 122.8 x10_4/uL. It also gave an RBC (72 h, time 3 day) of 661 x10_4/ul, a Ret (72 h, time 3 day) of 6.3% and a WBC (72 h, time 3 day) of 108 x10_2/uL. The KIDNEY_L (72 h, time 3 day) was 1 g, the KIDNEY_R (72 h, time 3 day) was 1 g and the KIDNEY_TOTAL (72 h, time 3 day) was 2 g. For the same compound, the LIVER (72 h, time 3 day) was 10.8 g, the A/G (72 h, time 3 day) was 0.9 and the ALP (72 h, time 3 day) was 1683.8 IU/L. It also gave an ALT (72 h, time 3 day) of 49.4 IU/L, an AST (72 h, time 3 day) of 70.2 IU/L and a BUN (72 h, time 3 day) of 13.2 mg/dL. The CRE (72 h, time 3 day) was 0.2 mg/dL, the Ca (72 h, time 3 day) was 11.1 mg/dL and the Cl (72 h, time 3 day) was 105 meq/L. The DBIL (72 h, time 3 day) was 0.01 mg/dL, the GLC (72 h, time 3 day) was 176.6 mg/dL and the IP (72 h, time 3 day) was 8.2 mg/dL. For the same compound, the K (72 h, time 3 day) was 4 meq/L, the LDH (72 h, time 3 day) was 69.8 IU/L and the Na (72 h, time 3 day) was 142.4 meq/L. The PL (72 h, time 3 day) was 151 mg/dL, the RALB (72 h, time 3 day) was 2.6 g/dL and the TBIL (72 h, time 3 day) was 0.062 mg/dL. For the same compound, the TC (72 h, time 3 day) was 79.2 mg/dL, the TG (72 h, time 3 day) was 86.4 mg/dL and the TP (72 h, time 3 day) was 5.5 g/dL. It also gave a gamma-GTP (72 h, time 3 day) of 1 IU/L, a TERMINAL_BW ([…], time 7 day) of 265.6 g and a TERMINAL_BW ([…], time 14 day) of 327.4 g. It also gave a TERMINAL_BW ([…], time 28 day) of 387.4 g, an APTT ([…], time 7 day) of 17.8 s and a Bas ([…], time 7 day) of 0.4%. For the same compound, the Eos ([…], time 7 day) was 1%, the Fbg ([…], time 7 day) was 287 mg/dL and the Hb ([…], time 7 day) was 14 g/dL. For the same compound, the Ht ([…], time 7 day) was 42.1%, the Lym ([…], time 7 day) was 81.6% and the MCH ([…], time 7 day) was 20.9 pg. For the same compound, the MCHC ([…], time 7 day) was 33.3%, the MCV ([…], time 7 day) was 62.5 fL and the Mono ([…], time 7 day) was 2.2%. The Neu ([…], time 7 day) was 14.6%, the PT ([…], time 7 day) was 12.7 s and the Plat ([…], time 7 day) was 118.8 x10_4/uL. The RBC ([…], time 7 day) was 674.4 x10_4/ul, the Ret ([…], time 7 day) was 5.3% and the WBC ([…], time 7 day) was 114.8 x10_2/uL. It also gave an APTT ([…], time 14 day) of 18 s, a Bas ([…], time 14 day) of 0.4% and an Eos ([…], time 14 day) of 1%. The Fbg ([…], time 14 day) was 290.4 mg/dL, the Hb ([…], time 14 day) was 14.6 g/dL and the Ht ([…], time 14 day) was 44.4%. The Lym ([…], time 14 day) was 78.2%, the MCH ([…], time 14 day) was 19.6 pg and the MCHC ([…], time 14 day) was 32.8%. It also gave an MCV ([…], time 14 day) of 59.8 fL, a Mono ([…], time 14 day) of 1.8% and a Neu ([…], time 14 day) of 18.4%. For the same compound, the PT ([…], time 14 day) was 12.8 s, the Plat ([…], time 14 day) was 120.3 x10_4/uL and the RBC ([…], time 14 day) was 743.4 x10_4/ul. The Ret ([…], time 14 day) was 4.3%, the WBC ([…], time 14 day) was 98.4 x10_2/uL and the APTT ([…], time 28 day) was 20 s. The Bas ([…], time 28 day) was 0.6%, the Eos ([…], time 28 day) was 1% and the Fbg ([…], time 28 day) was 266.6 mg/dL. The Hb ([…], time 28 day) was 15.4 g/dL, the Ht ([…], time 28 day) was 45.4% and the Lym ([…], time 28 day) was 81.4%. For the same compound, the MCH ([…], time 28 day) was 18.7 pg, the MCHC ([…], time 28 day) was 34% and the MCV ([…], time 28 day) was 55.2 fL. It also gave a Mono ([…], time 28 day) of 2.4%, a Neu ([…], time 28 day) of 13.8% and a PT ([…], time 28 day) of 13.4 s. The Plat ([…], time 28 day) was 102.9 x10_4/uL, the RBC ([…], time 28 day) was 823.4 x10_4/ul and the Ret ([…], time 28 day) was 2.2%. The WBC ([…], time 28 day) was 134 x10_2/uL, the KIDNEY_L ([…], time 7 day) was 1.1 g and the KIDNEY_R ([…], time 7 day) was 1.1 g. The KIDNEY_TOTAL ([…], time 7 day) was 2.2 g, the KIDNEY_L ([…], time 14 day) was 1.3 g and the KIDNEY_R ([…], time 14 day) was 1.3 g. The KIDNEY_TOTAL ([…], time 14 day) was 2.5 g, the KIDNEY_L ([…], time 28 day) was 1.4 g and the KIDNEY_R ([…], time 28 day) was 1.4 g. The KIDNEY_TOTAL ([…], time 28 day) was 2.8 g, the LIVER ([…], time 7 day) was 12.4 g and the LIVER ([…], time 14 day) was 14.8 g. The LIVER ([…], time 28 day) was 15.5 g, the A/G ([…], time 7 day) was 0.8 and the ALP ([…], time 7 day) was 1624 IU/L. For the same compound, the ALT ([…], time 7 day) was 42 IU/L, the AST ([…], time 7 day) was 65.2 IU/L and the BUN ([…], time 7 day) was 16.6 mg/dL. It also gave a CRE ([…], time 7 day) of 0.2 mg/dL, a Ca ([…], time 7 day) of 10.8 mg/dL and a Cl ([…], time 7 day) of 103.8 meq/L. For the same compound, the DBIL ([…], time 7 day) was 0.008 mg/dL, the GLC ([…], time 7 day) was 204.8 mg/dL and the IP ([…], time 7 day) was 7.5 mg/dL. For the same compound, the K ([…], time 7 day) was 4.1 meq/L, the LDH ([…], time 7 day) was 57.4 IU/L and the Na ([…], time 7 day) was 141 meq/L. The PL ([…], time 7 day) was 161 mg/dL, the RALB ([…], time 7 day) was 2.5 g/dL and the TBIL ([…], time 7 day) was 0.052 mg/dL. The TC ([…], time 7 day) was 76.4 mg/dL, the TG ([…], time 7 day) was 135.8 mg/dL and the TP ([…], time 7 day) was 5.6 g/dL. For the same compound, the gamma-GTP ([…], time 7 day) was 1 IU/L, the A/G ([…], time 14 day) was 0.8 and the ALP ([…], time 14 day) was 1281 IU/L. The ALT ([…], time 14 day) was 41.4 IU/L, the AST ([…], time 14 day) was 69 IU/L and the BUN ([…], time 14 day) was 16 mg/dL. For the same compound, the CRE ([…], time 14 day) was 0.2 mg/dL, the Ca ([…], time 14 day) was 10.9 mg/dL and the Cl ([…], time 14 day) was 104.2 meq/L. It also gave a DBIL ([…], time 14 day) of 0.012 mg/dL, a GLC ([…], time 14 day) of 193.4 mg/dL and an IP ([…], time 14 day) of 6.9 mg/dL. It also gave a K ([…], time 14 day) of 4 meq/L, an LDH ([…], time 14 day) of 55.4 IU/L and a Na ([…], time 14 day) of 142.2 meq/L. The PL ([…], time 14 day) was 158.6 mg/dL, the RALB ([…], time 14 day) was 2.7 g/dL and the TBIL ([…], time 14 day) was 0.06 mg/dL. It also gave a TC ([…], time 14 day) of 76.4 mg/dL, a TG ([…], time 14 day) of 127.2 mg/dL and a TP ([…], time 14 day) of 5.8 g/dL. It also gave a gamma-GTP ([…], time 14 day) of 1 IU/L, an A/G ([…], time 28 day) of 0.8 and an ALP ([…], time 28 day) of 1057.2 IU/L. The ALT ([…], time 28 day) was 39.8 IU/L, the AST ([…], time 28 day) was 65.6 IU/L and the BUN ([…], time 28 day) was 16 mg/dL. The CRE ([…], time 28 day) was 0.2 mg/dL, the Ca ([…], time 28 day) was 10.7 mg/dL and the Cl ([…], time 28 day) was 104.2 meq/L. For the same compound, the DBIL ([…], time 28 day) was 0.01 mg/dL, the GLC ([…], time 28 day) was 190 mg/dL and the IP ([…], time 28 day) was 6.7 mg/dL. It also gave a K ([…], time 28 day) of 3.9 meq/L, an LDH ([…], time 28 day) of 55 IU/L and a Na ([…], time 28 day) of 142.8 meq/L. It also gave a PL ([…], time 28 day) of 157.2 mg/dL, an RALB ([…], time 28 day) of 2.8 g/dL and a TBIL ([…], time 28 day) of 0.06 mg/dL. For the same compound, the TC ([…], time 28 day) was 74.6 mg/dL, the TG ([…], time 28 day) was 152.2 mg/dL and the TP ([…], time 28 day) was 6.1 g/dL. The gamma-GTP ([…], time 28 day) was 1 IU/L.
